Experimental data as given in US20140271534A1, “COMPOUNDS, COMPOSITIONS, AND METHODS FOR REPELLING AN INSECT FROM AN AREA, ARTICLE, AND/OR STRUCTURE” (BAYER CROPSCIENCE LP, priority 2013, published 2014).

Assays:
[1] = tested on: honeybees; assay: honeybee repulsion experiment, feeding stations with 50% sucrose; format: in vivo; conditions: for repellency to honeybees at 24 hours: 2% by weight in 50% sucrose feeder
Description: FIG. 1 describes the feeding station arrangement (A and B) for the honeybee repulsion experiments described herein. As set forth in FIG. 1, panel (A) sets forth the bee cage positions on the left portion of panel (A) with the randomized feeding station positions on the right portion of panel (A). Panel (B) sets forth an alignment of the randomized feeding station positions with a distance of two meters between feeding stations. A total of eight feeding stations were evaluated at a ten meter distance in front of the respective bee hives. The feeding stations were placed two meters apart from one another.
Honeybees were trained to deep feeders (eight positions), each containing a 50% sucrose solution for one day. After the honeybees were trained to each feeder, the 50% sucrose feeder at randomized positions 1-8 was replaced with a shallow feeder containing a combination of repelling compounds and a 50% sucrose solution according to Table 3. In accordance with FIGS. 5 and 6, 2% by weight of Camphor oil (T4), Ajowan oil (T5), Camphor powder (T6), Rosemary oil (T7), and 2-Decanone (T8) in combination with a 50% sucrose treatment were added to feeders on day two.
Table 3 describes active agents evaluated for bee repulsion and their randomized feeding station positions. As described in Table 3, T1 (control), T2 (control), T3 (control), T4 (Camphor oil), T5 (Ajowan oil), T6 (Camphor powder), T7 (Rosemary oil), and T8 (2-Decanone).
FIG. 5 evaluates the number of bees visiting a respective feed station over a time interval. FIG. 6 sets forth the mean number of honeybees visiting feeding station over a period of four hours.

[2] = stability test of Poncho combined with Eugenol, clothianidin content by HPLC; format: physicochemical; conditions: in Poncho combined with Eugenol; up to 54° C. for seven days
Description: Table 4 describes a stability test with a combination of Eugenol and Poncho evaluated at room temperature, 40° C., and 54° C. at zero time, 3 days, and 7 days as confirmed by high performance liquid chromatography (HPLC).

[3] = stability test of Poncho 600 combined with α-terpineol, clothianidin content by HPLC; format: physicochemical; conditions: in Poncho combined with alpha-terpineol; up to 54° C. for eight days
Description: Table 5 describes a stability test with a combination of α-terpineol and Poncho 600 evaluated at room temperature, 40° C., and 54° C. at zero time, 2 days, and 8 days as confirmed by HPLC.

SMILES | repellency to honeybees at 24 hours [1] | repellency to honeybees at 24 hours ([1]; listed as 2-decanone) | repellency to honeybees over the full 4 hour assessment period ([1]; in 50% sucrose feeder, 4 hour assessment period) | chemical stability of clothianidin content [2] | chemical stability of clothianidin content [3]
CCCCCCCCC(C)=O [Compound 2-Decanone, 2-decanone] | exhibited repellency | still repellent | highly repellent |  | 
CN/C(=N\[N+](=O)[O-])NCc1cnc(Cl)s1 [clothianidin] |  |  |  | exhibited chemical stability | exhibited chemical stability
